From PubChem BioAssay (NCI)
Several values for one entry are separate records, joined by “and”; a condition that tells them apart may be missing. Equal values may be shown once.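 Step 1: Grow cells in 96-well plates. Step 2: Expose to compound for 48 hours at 5 concentrations. Step 3: Interpolate endpoints linearly; if unreached, use highest concentration. GI50: concentration for 50% inhibition of growth. TGI is the concentration that stops growth completely.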

Experiments:
Assay in all cases: inhibition of tumour cell growth, NCI panel, 48 h
[1] = test system: A498 renal
[2] = test system: MALME-3M melanoma
[3] = test system: MDA-MB-435
[4] = test system: NCI-H460 lung
[5] = test system: SF-268 CNS
[6] = test system: SK-MEL-28 melanoma
[7] = test system: SN12C renal
[8] = test system: SNB-75 CNS
[9] = test system: TK-10 renal
[10] = test system: UO-31 renal

Compound	GI50 [1]	TGI [1]	GI50 [2]	TGI [2]	GI50 [3]	TGI [3]	GI50 [4]	TGI [4]	GI50 [5]	TGI [5]	GI50 [6]	TGI [6]	GI50 [7]	TGI [7]	GI50 [8]	TGI [8]	GI50 [9]	TGI [9]	GI50 [10]	TGI [10]
COc1cccc2c1nc1cccc(OC)c1[n+]2[O-]	2.87 µM	16.2 µM	12.8 µM	30.3 µM	16.8 µM	44.8 µM	2.76 µM	10.7 µM	2.65 µM	13.8 µM	6.31 µM	20.2 µM	4.15 µM	16.3 µM	2.49 µM	14.5 µM	16.3 µM	47.6 µM	3.07 µM	15.6 µM
CN(C)c1ccc(/C=C/c2ccnc3ccc4ccccc4c23)cc1		69.1 µM		58.5 µM		> 100 µM		> 100 µM		> 100 µM		> 100 µM		> 100 µM		70.4 µM		49.9 µM		> 100 µM
COc1ccc(-c2ccc3ncc4c(c3c2)n(-c2ccc(N3CCNCC3)c(C(F)(F)F)c2)c(=O)n4C)cn1	< 0.01 µM and 0.00224 µM	< 0.01 µM and 0.012 µM	< 0.01 µM and 0.00404 µM	0.03 µM and 0.0353 µM	< 0.01 µM and 0.00272 µM	0.0732 µM and 0.106 µM	< 0.01 µM and 0.00389 µM	0.223 µM and 0.141 µM	< 0.01 µM and 0.00867 µM	0.755 µM and 1.22 µM	< 0.01 µM and 0.00679 µM	0.101 µM and 0.0648 µM	< 0.0112 µM and 0.00382 µM	1.56 µM and 0.381 µM	< 0.01 µM and 0.00263 µM	0.0129 µM and 0.0255 µM	< 0.01 µM and 0.00865 µM	0.0379 µM and 0.109 µM	< 0.01 µM and 0.00417 µM	0.196 µM and 0.0269 µM
COc1ccc(C2=CC(c3ccc(Oc4ccnc5cc(Cl)ccc45)c(OC)c3)c3c(nc(OC)[nH]c3=O)N2)cc1 (stereo not drawn)	48 µM	> 100 µM	> 100 µM	> 100 µM	5.06 µM	> 100 µM	6.51 µM	> 100 µM	5.09 µM	> 100 µM	45.3 µM	> 100 µM	7.03 µM	> 100 µM	9.44 µM	> 100 µM			5.97 µM	> 100 µM
CN(C)CCNC(=O)c1cccc2cc([N+](=O)[O-])ccc12	1.19 µM and 0.185 µM	4.53 µM and 0.91 µM	1.33 µM and 0.179 µM	2.75 µM and 0.621 µM		7.7 µM	0.39 µM	2.05 µM	1.87 µM and 0.22 µM	10.9 µM and 1.16 µM	1.83 µM and 0.279 µM	4.2 µM and 0.977 µM	1.69 µM and 0.178 µM	7.57 µM and 2.24 µM	1.37 µM and 0.38 µM	5.77 µM and 1.08 µM	0.816 µM and 0.155 µM	4.74 µM and 0.591 µM	1.28 µM and 0.168 µM	4.6 µM and 1 µM
CC(C)(C)OC(=O)N1CC(Cn2cc(C(F)(F)F)c3c(Cl)ncnc32)C1	4.81 µM	16.8 µM	12.4 µM	26.6 µM	1.72 µM	3.14 µM	2.06 µM	3.99 µM	1.75 µM	3.4 µM	1.91 µM	3.53 µM	2.32 µM	6.12 µM	4.99 µM	18.1 µM	24.6 µM	62.5 µM	2.71 µM	10.8 µM
CCc1nc(-n2c(CC)nc3ccccc3c2=O)nc(N)c1-c1ccc(Cl)cc1	27.2 µM	> 94.5 µM	> 80.1 µM	> 100 µM	7.12 µM	> 100 µM	14 µM	> 100 µM	> 40.4 µM	> 100 µM	> 100 µM	> 100 µM	> 46.1 µM	> 100 µM	> 100 µM	> 100 µM	35.6 µM	> 100 µM	23.7 µM	> 100 µM
COc1cc(-c2cc(-c3nc4cc(Cl)c(Cl)cc4[nH]3)[nH]n2)cc(OC)c1OC	4.21 µM	28.3 µM	2.7 µM	12.4 µM	3.78 µM	14.6 µM	3.33 µM	12.9 µM	3.95 µM	14.9 µM	3.07 µM	12.3 µM	3.05 µM	13.4 µM	3.12 µM	14.2 µM	4.61 µM	15.5 µM	2.47 µM	8.48 µM
O=c1c2[nH]c3ccccc3c2nc2n1CCS2	56 µM	> 100 µM	69.9 µM	> 100 µM	> 100 µM	> 100 µM	> 100 µM	> 100 µM	> 100 µM	> 100 µM	> 100 µM	> 100 µM	> 100 µM	> 100 µM	15.8 µM	77.3 µM	> 100 µM	> 100 µM	47.2 µM	> 100 µM
[C-]#[O+].[C-]#[O+].[Ir].[O-]c1ccc2ccccc2c1N=Nc1ccccc1		33.3 µM		13 µM		54.4 µM		> 70.6 µM	22.7 µM	61.5 µM		24.7 µM		23.9 µM		59.6 µM		17.3 µM		24.4 µM
C[C@@H]1[C@H]2[C@H](C=C3[C@@H]4CC[C@H]5Cc6nc7c(nc6C[C@]5(C)[C@H]4C[C@@H](O)[C@@]32C)C[C@@H]2CC[C@H]3C4=C[C@@H]5O[C@@]6(CC[C@](C)(CO)O6)[C@@H](C)[C@@]5(O)[C@@]4(C)[C@H](O)C[C@@H]3[C@@]2(C)C7)O[C@]12CCC(C)(C)O2	0.236 µM	0.543 µM	1.58 µM	22.7 µM	2.8 µM	24.3 µM	0.466 µM	4.95 µM	0.756 µM	31.6 µM	0.518 µM	21.3 µM	11.6 µM	> 70.3 µM	0.14 µM	9.54 µM	13.3 µM	72.5 µM	0.275 µM	1.54 µM
O=C1c2ccccc2C(=O)c2c(NC(=O)C(Cl)CCl)cccc21 (stereo not drawn)		36.2 µM		47.2 µM		23 µM		31.1 µM		25 µM		35.5 µM		21.4 µM		32.4 µM		18.1 µM		24.1 µM
COc1cc2cn3c4ccc(O)cc4nc(N)c3c2cc1OC	0.141 µM	1.06 µM	0.792 µM	16.8 µM	0.0195 µM	12.8 µM	0.289 µM	2.36 µM	0.149 µM	15.1 µM	0.0518 µM	15.8 µM	0.295 µM	13 µM	0.0886 µM	7.49 µM	1.54 µM	9.55 µM	0.235 µM	2.48 µM
